# Source: patent publication US8440199B2, “Methods for mobilizing mesenchymal stem cells in a patient” (Imperial Innovations Limited, priority 2007, dated 2013)
# Experiments:
# [1] = tested on: HPCs; test: Circulating CFU-HPC in blood; settings: agent alone (AMD3100 5 mg/kg i.p., blood at 60 min; G-CSF or VEGF once daily for 4 days), FIG. 20b
# Procedure: a, Experimental protocol. […] 24 hours after the last injection, mice were administered a CXCR4 antagonist (AMD3100 5 mg/kg i.p, closed bars) or vehicle (PBS, open bars). 60 minutes later, blood was taken for analysis of circulating: b, CFU-HPC; c, CFU-EPC; and d, CFU-SPC. CFU-HPC, CFU-EPC, and CFU-SPC are shown as number of colonies per ml blood. n=5-8 mice per group. Data: means±s.e.m. *: P<0.05, **: P<0.01, ***: P<0.001 between selected groups.
# (§1) 24 hours after the last injection, mice were administered a CXCR4 antagonist (AMD3100, 5 mg/kg i.p), KC (30 μg/kg i.v.) or vehicle and blood was collected via cardiac puncture 60 minutes later for enumeration of circulating leukocyte, HPC, EPC, and stromal progenitor cell levels.
# In some experiments citrated blood was obtained via cardiac bleed and lysed for red blood cells. […] Bone marrow, perfusate and lysed blood were then used for assays outlined below to enumerate HPCs (CFU-HPC), EPCs (CFU-EPC), SPCs (CFU-F).
# 5×10^4 cells were added to Methocult medium (Stem cell technologies) supplemented with specific cytokines and growth factors to enable formation of CFU-HPC. Mobilized cells were incubated for 11 days before quantification.
# (§2) The total number of colony forming units mobilized was calculated according to the number of colonies per plate×by the total number of leukocytes mobilized/number of cells seeded.
# [2] = tested on: CD34^+ VEGFR2^+ EPCs; test: PI staining, cell cycle status of CD34+ VEGFR2+ EPCs; assay type: in vivo, mice; settings: treated 4 days, FIG. 25d
# Procedure: For flow cytometric analysis, cells were re-suspended in FACS buffer. To identify neutrophils in the bone marrow, surface expression of the granulocyte marker Ly-6G/Ly6C (Gr-1) was determined. Neutrophils were identified as Gr-1^high positive cells with a characteristic high side scatter profile. HPCs residing in the BM were selected as being negative for lineage (Lin^−) markers: CD3e, CD11b, CD45R, Ly-76, and Gr-1 and positive for Sca-1 (Lin^− Sca-1^+ cells) (Gerber et al., 2002; Uchida, et al., 1997). EPCs residing in the BM were selected as being positive for both CD34 and VEGFR2 (CD34^+ VEGFR2^+ cells) (Asahara et al., 1997; Yoon et al., 2005). […] Samples were then washed and then quantified on a FACSAria cell sorter (BD Biosciences, Oxford, United Kingdom) and analysed using FACSDiva software.
# Lin^− Sca-1^+ cells and CD34^+ VEGFR2^+ cells were analysed to determine their cell cycling status using a propidium iodide (PI) stain. […] A dotplot of PI-Width against PI-Area was recorded. Aggregates of cells were detected as cells having a larger PI-W profile and were not included in the gate. […] To calculate the percentage of cells undergoing active cell cycling, a marker was set to exclude the G0/G1 peak and the percentage of cells in S/G2/M was calculated.
# [3] = tested on: EPCs; test: CFU-EPC bone marrow frequency; assay type: in vivo, mice; settings: treated over 4 days, compared to controls, FIG. 22b
# [4] = tested on: EPCs; test: Circulating CFU-EPC in blood; assay type: in vivo, mice; settings: FIG. 20c
# [5] = tested on: HPCs; test: In situ perfusion of mouse hind limb, CFU-HPC in perfusate; settings: for HPC mobilization from the bone marrow: FIG. 21b
# Procedure: 24 hours after the last injection, mice underwent perfusion of the right hind limb. […] The hind limb was then perfused for a further 50 minutes to allow collection of b, CFU-HPC; c, CFU-EPC; or d, CFU-SPC; via the femoral vein. CFU-HPC, CFU-EPC, and CFU-SPC are shown as total number of colonies collected in the perfusate. n=5-8 mice per group. Data: means±s.e.m. *: P<0.05, **: P<0.01, ***: P<0.001 between selected groups.
# Female BALB/c mice were purchased from Harlan (Oxford, United Kingdom).
# (§3) On day 5 following pre-treatment of growth factors, mice were anaesthetized and the femoral artery and vein exposed. The hind limb was isolated by occlusion of the external iliac artery, superficial epigastric and muscular branch. Polyethylene cannulae (Portex, London, UK) were immediately inserted into the femoral artery and vein as previously described (Martin et al., 2003; 2006; Wengner et al., 2008). Perfusion buffer was infused via the arterial cannula and removed from the venous cannula using a Minipuls peristaltic pump (Anachem, Luton, UK). The hind limb was perfused for an initial 2 minutes to remove remaining blood from the vasculature and then perfused for a further 60 min with vehicle alone or the CXCR4 antagonist (AMD3100, 0.1 mM), infused over the first 10 minutes using an infusion/withdrawal pump (Harvard Instruments, U.K.).
# The perfusate was centrifuged and re-suspended in DMEM+20% FBS. […] Bone marrow, perfusate and lysed blood were then used for assays outlined below to enumerate HPCs (CFU-HPC), EPCs (CFU-EPC), SPCs (CFU-F).
# 5×10^4 cells were added to Methocult medium (Stem cell technologies) supplemented with specific cytokines and growth factors to enable formation of CFU-HPC. Mobilized cells were incubated for 11 days before quantification. Further characteristics of CFU-HPC colonies were obtained on day 12, namely the mean number of cells in each colony, and the mean colony area. The mean colony area (mm^2) was determined by image analysis using Scion Image analysis program (NIH). The cell number was determined by diluting colonies grown in Methocult into DMEM (to disperse the methylcellulose) and aspirating the colonies into a single cell suspension before obtaining a cell count.
# as §2
# [6] = tested on: EPCs; test: In situ perfusion of mouse hind limb, CFU-EPC in perfusate; assay type: in vivo, mice; settings: for EPC mobilization from the bone marrow: FIG. 21c
# [7] = tested on: endothelial progenitor cells (EPC); test: Example 1: EPC mobilisation, hind limb bone marrow perfusion and circulating blood, CFU-EPC assay; settings: G-CSF or VEGF 2.5 μg on 4 consecutive days, then AMD3100; perfusate and blood, FIGS. 5-8
# Procedure: 24 hours after the last injection, mice were administered a CXCR4 antagonist (AMD3100, 5 mg/kg i.p), or vehicle and blood was collected via cardiac puncture 1 hour later for enumeration of circulating leukocyte, HPC, EPC and MSC levels.
# On day 5, mice were anaesthetized with urethane (25% 0.2 ml i.p.) and the femoral artery and vein exposed. The hind limb was isolated by occlusion of the external iliac artery, superficial epigastric and muscular branch with 5/0 braided silk suture. Polyethylene cannulae (0.61 mm OD, Portex, London, UK) were immediately inserted into the femoral artery and vein and tied in place with 5/0 braided silk suture. Perfusion buffer (modified Krebs-Ringer bicarbonate buffer) at 37° C. was infused (0.15 ml/min) via the arterial cannula and removed from the venous cannula using a Minipuls peristaltic pump (Anachem, Luton, UK). The hind limb was perfused for an initial 10 minutes to remove remaining blood from the vasculature and then perfused for a further 60 min with vehicle alone or AMD3100, a CXCR4 antagonist (0.1 mM, Sigma UK) infused over the first 10 minutes using an infusion/withdrawal pump (Harvard Instruments, U.K.).
# The perfusate was collected and centrifuged and the cell pellet re-suspended in Dulbecco's modified eagles medium (DMEM) with 20% fetal bovine serum (FBS). A total cell count was performed before the perfusate was lysed for red blood cells, re-suspended again in DMEM (20% FBS) and used for assays outlined below to enumerate haematopoietic progenitor cells (CFU-HPC), endothelial progenitor cells (CFU-EPC), and leukocyte populations.
# In some experiments blood was taken to enumerate HPCs, EPCs and leukocytes. A total cell count was performed on citrated blood before being lysed for red blood cells and re-suspended in DMEM (20% FBS).
# Assay was performed in duplicate. Dishes were incubated for 7 days before media was changed, and then incubated for a further 14 days before the enumeration of late outgrowth endothelial progenitor cells. Early outgrowth endothelial progenitor cells were enumerated on day 5.
# In each of the above assays, the total number of colony forming units mobilised is calculated according to the number of colonies per plate×by the total number of leukocytes mobilized/number of cells seeded.
# Mice were anaesthetised and the femoral artery and vein was cannulated such that the femoral bone marrow could be perfused (Martin et al, (2006) Br. J. Haem. 134: 326-329). […]
# Mice were injected i.p. with the CXCR4 antagonist, AMD3100, (or vehicle control) and 1 h later the mice were killed. Blood was collected by cardiac puncture and stem cell numbers in the blood were determined. […]
# [8] = tested on: neutrophils; test: Neutrophil mobilization, in situ perfusion of hind limb; settings: VEGF (50 nM) infused acutely with CXCR4 antagonist, FIG. 24b
# Procedure: 24 hours later these mice underwent perfusion of the right hind limb. CXCR4 antagonist (AMD3100 0.1 mM, closed bars) or vehicle (PBS, open bars) were then infused directly into the femoral artery for 10 minutes. The hind limb was then perfused for a further 50 minutes to allow collection of a, neutrophils via the femoral vein. […] The hind limb was again perfused for a further 50 minutes to allow b, collection of neutrophils. […] Data: mean±s.e.m. *: P<0.05, ***: P<0.001 between selected groups.
# On day 5 following pre-treatment of growth factors, mice were anaesthetized and the femoral artery and vein exposed. The hind limb was isolated by occlusion of the external iliac artery, superficial epigastric and muscular branch. […] Perfusion buffer was infused via the arterial cannula and removed from the venous cannula using a Minipuls peristaltic pump (Anachem, Luton, UK). The hind limb was perfused for an initial 2 minutes to remove remaining blood from the vasculature and then perfused for a further 60 min with vehicle alone or the CXCR4 antagonist (AMD3100, 0.1 mM), infused over the first 10 minutes using an infusion/withdrawal pump (Harvard Instruments, U.K.).
# The perfusate was centrifuged and re-suspended in DMEM+20% FBS.
# [9] = Total number of cells in the femurs; assay type: in vivo; settings: treated over 4 days; not significantly different compared to control mice
# Procedure: as §1
# (§4) The perfusate was centrifuged and re-suspended in DMEM+20% FBS. In some experiments citrated blood was obtained via cardiac bleed and lysed for red blood cells. Bone marrow and perfusate cytospins, and blood smears were stained using DiffQuik for the enumeration of mononuclear cells, eosinophils, and neutrophils. Bone marrow, perfusate and lysed blood were then used for assays outlined below to enumerate HPCs (CFU-HPC), EPCs (CFU-EPC), SPCs (CFU-F).
# [10] = tested on: SPCs; test: In situ perfusion of mouse hind limb, CFU-SPC in perfusate; assay type: in vivo, mice; settings: for SPC mobilization from the bone marrow: FIG. 21d
# Procedure: a, overview of procedures set up for identifying the direct mobilization of progenitor cells from the femoral bone marrow. […] 24 hours after the last injection, mice underwent perfusion of the right hind limb. CXCR4 antagonist (AMD3100 0.1 mM, closed bars) or vehicle (PBS, open bars) were then infused directly into the femoral artery for 10 minutes. The hind limb was then perfused for a further 50 minutes to allow collection of b, CFU-HPC; c, CFU-EPC; or d, CFU-SPC; via the femoral vein. CFU-HPC, CFU-EPC, and CFU-SPC are shown as total number of colonies collected in the perfusate. n=5-8 mice per group. Data: means±s.e.m. *: P<0.05, **: P<0.01, ***: P<0.001 between selected groups.
# as §1, §3, §4
# 5×10^5 cells were added to Mesencult media including supplements (Stemcell Technologies). Dishes were incubated for 7 days before media was changed, and then incubated for a further 14 days before the enumeration of SPC colonies (CFU-F).
# as §2
# [11] = tested on: neutrophils; settings: VEGF-treated mice, KC 30 nM, FIG. 24e
# Procedure: Bone marrow-derived neutrophils were tested for migration towards KC (30 nM) using 3 μm pore sized transwell chemotaxis plates as previously described (Wengner et al., 2008). To measure HPC and EPC migration towards SDF-1α, murine bone marrow cells (2×10^6 cells) were placed in the upper chamber of transwell inserts (5 μm pore size Corning). These in turn were placed in individual wells of a 24 well cell culture plate with 30 nM SDF-1α added. Chambers were incubated for 4 hours at 37° C. and migrated cells were then placed in methocult or EPC colony media as described above for the enumeration of CFU-HPC and CFU-EPC respectively.
# [12] = tested on: CXCR2; test: Flow cytometry of CXCR2 expression on bone marrow neutrophils; assay type: in vivo; settings: VEGF-treated mice, FIG. 24d
# Procedure: For flow cytometric analysis, cells were re-suspended in FACS buffer. To identify neutrophils in the bone marrow, surface expression of the granulocyte marker Ly-6G/Ly6C (Gr-1) was determined. Neutrophils were identified as Gr-1^high positive cells with a characteristic high side scatter profile. HPCs residing in the BM were selected as being negative for lineage (Lin^−) markers: CD3e, CD11b, CD45R, Ly-76, and Gr-1 and positive for Sca-1 (Lin^− Sca-1^+ cells) (Gerber et al., 2002; Uchida, et al., 1997). EPCs residing in the BM were selected as being positive for both CD34 and VEGFR2 (CD34^+ VEGFR2^+ cells) (Asahara et al., 1997; Yoon et al., 2005). Furthermore, neutrophils were stained for the surface expression of CXCR2, whilst Lin^− Sca-1^+ cells and CD34^+ VEGFR2^+ cells were stained for the cell surface expression of CXCR4. Samples were then washed and then quantified on a FACSAria cell sorter (BD Biosciences, Oxford, United Kingdom) and analysed using FACSDiva software.
# [13] = tested on: HPCs; settings: treated over 4 days, compared to controls, FIG. 22a
# Procedure: 24 hours after the last injection, bone marrow was aspirated for the enumeration of a, CFU-HPC bone marrow frequency; b, CFU-EPC bone marrow frequency; and c, CFU-SPC bone marrow frequency.
# Mobilized cells were incubated for 11 days before quantification.
# [14] = tested on: HPCs; test: In vitro chemotaxis of bone marrow HPCs towards SDF-1α; assay type: cell-based; settings: bone marrow cells of mice treated 4 days; 30 nM SDF-1α, FIG. 23d, 23f
# Procedure: Bone marrow was aspirated on day 5 and harvested cells were used to determine a, SDF-1α levels in bone marrow supernatant as determined by ELISA; b, % of bone marrow Lin^− Sca-1^+ cells expressing CXCR4; and c, % of bone marrow CD34^+ VEGFR2^+ cells expressing CXCR4. Harvested cells were also utilized in the following chemotaxis assays: d, number of HPCs; and e, EPCs undergoing chemotaxis towards 30 nM SDF-1α. Cells taken from bone marrow of mice treated with G-CSF (closed bars) or vehicle (PBS, open bars). f, number of HPCs; and g, EPCs undergoing chemotaxis towards 30 nM SDF-1α.
# [15] = tested on: mesenchymal stem cells (MSC); test: Example 1: MSC mobilisation, hind limb bone marrow perfusion and circulating blood, CFU-MSC assay; assay type: in vivo, mice; settings: perfusate and blood, FIGS. 9-12
# Procedure: 4×10^5 cells were added to 3 ml Mesencult media including supplements (05501 and 05502 Stemcell Technologies). Assay was performed in duplicate.
# [16] = growth factor pre-treatment 4 days, then CXCR4 antagonist infused
# [17] = agent alone (CXCR4 antagonist 0.1 mM infused 10 min; G-CSF or VEGF pre-treatment 4 days)
substance,measurement,setting,value
VEGF,circulating numbers of HPCs,[1],did not increase circulating numbers of HPCs
same,percentage of CD34+ VEGFR2+ EPCs in S/G2/M phase of the cell-cycle,[2],did not alter the percentage of CD34^+ VEGFR2^+ EPCs in the S/G2/M phase
same,frequency/number of EPCs in the bone marrow,[3],no difference was observed
same,circulating numbers of EPCs,"[4]; agent alone (AMD3100 5 mg/kg i.p., blood at 60 min; G-CSF or VEGF once daily for 4 days)",increase in EPC numbers
same,circulating numbers of EPCs,"[4]; growth factor pre-treatment over 4 days, then CXCR4 antagonist AMD3100 5 mg/kg i.p.",more than additive increase in EPC numbers
same,reduction of HPC mobilization induced by infusion of the CXCR4 antagonist,"[5]; VEGF pre-treatment 4 days, then CXCR4 antagonist infused",75%
same,HPC mobilization from the bone marrow,"[5]; agent alone (CXCR4 antagonist 0.1 mM infused 10 min; G-CSF or VEGF pre-treatment 4 days), perfusate over 1 hour",HPCs and SPCs were not mobilized
same,"HPC mobilization, acute administration","[5]; growth factor (50 nM) infused into femoral artery for 10 minutes, alone, FIG. 31a",mobilized both HPCs and EPCs
same,HPC mobilization from the bone marrow,[5]; [16],almost completely suppressed HPC mobilization
same,EPC mobilization from the bone marrow,[6]; [17],significant EPC mobilization
same,"EPC mobilization, acute administration","[6]; growth factor (50 nM) infused into femoral artery for 10 minutes, alone, FIG. 31b",mobilized both HPCs and EPCs
same,EPC mobilization from the bone marrow,[6]; [16],an additive effect was observed for EPC mobilization
same,EPC mobilization,[7],additive effect of AMD3100 and VEGF with respect to EPC mobilization
same,"suppression of neutrophil mobilization in response to the CXCR4 antagonist, acute administration",[8],effect was not seen
same,total number of cells in the femurs,[9],1.07±0.11×10^7 cells/femur
same,SPC mobilization from the bone marrow,[10]; [17],HPCs and SPCs were not mobilized
same,"SPC mobilization, acute administration","[10]; growth factor (50 nM) infused acutely, alone or in combination with CXCR4 antagonist, FIG. 31c","neither growth factor, when administered acutely or in combination with the CXCR4 antagonist led to mobilization of SPCs"
same,SPC mobilization from the bone marrow,[10]; [16],SPCs were mobilized
same,ability of bone marrow neutrophils to migrate towards KC in vitro,[11],did not affect
same,proportion of Gr-1+ bone marrow neutrophils expressing CXCR2,[12],did not affect either the proportion of Gr-1^+ bone marrow neutrophils expressing CXCR2
same,frequency of HPCs in the bone marrow,[13],no difference was observed
same,HPC chemotaxis towards SDF-1α,[14],abolished the ability of HPCs to migrate to SDF-1α
same,MSC mobilization,"[15]; G-CSF or VEGF 2.5 μg on 4 consecutive days, then AMD3100",mobilizes MSC into the blood
same,MSC mobilization,[15]; agent alone,does not mobilize MSCs
